Measurements from US10112899B2 (ViiV HEALTHCARE UK LIMITED, priority 2014, dated 2018).

test system: HIV in the HTLV-1 transformed cell line MT-4; test: organism not typed; type: cell-based; details: MT4, 96 h, MT-4 cells; luciferase/cell titer glo readout after 96 hours; 10 point dose response

Row | Compound | IC50 [nM]
1 | Cc1ccc(-c2c(C)c3c(c(C)c2[C@H](OC(C)(C)C)C(=O)O)CN(C(=O)C2CCC(F)(F)CC2)C3)cc1 [Example 111, (S)-2-(tert-butoxy)-2-(2-(4,4-difluorocyclohexanecarbonyl)-4,7-dimethyl-6-(p-tolyl)isoindolin-5-yl)acetic acid] | 16
2 | Cc1ccc(-c2c(C)c3c(c(C)c2[C@H](OC(C)(C)C)C(=O)O)CN(C(=O)C2CCCC2)C3)cc1 [Example 112, (S)-2-(tert-butoxy)-2-(2-(cyclopentanecarbonyl)-4,7-dimethyl-6-(p-tolyl)isoindolin-5-yl)acetic acid] | 29
3 | Cc1ccc(-c2c(C)c3c(c(C)c2[C@H](OC(C)(C)C)C(=O)O)CN(C(=O)C2CCC(F)(F)C2)C3)cc1 (stereo partly drawn) [Example 113, (2S)-2-(tert-butoxy)-2-(2-(3,3-difluorocyclopentanecarbonyl)-4,7-dimethyl-6-(p-tolyl)isoindolin-5-yl)acetic acid] | 10
4 | COc1cccc(C(=O)N2Cc3c(C)c(-c4ccc(C)cc4)c([C@H](OC(C)(C)C)C(=O)O)c(C)c3C2)c1 [Example 114, (S)-2-(tert-butoxy)-2-(2-(3-methoxybenzoyl)-4,7-dimethyl-6-(p-tolyl)isoindolin-5-yl)acetic acid] | 5
5 | Cc1ccc(-c2c(C)c3c(c(C)c2[C@H](OC(C)(C)C)C(=O)O)CN(C(=O)c2ccc(C)c(F)c2)C3)cc1 [Example 115, (S)-2-(tert-butoxy)-2-(2-(3-fluoro-4-methylbenzoyl)-4,7-dimethyl-6-(p-tolyl)isoindolin-5-yl)acetic acid] | 6
6 | COC1CCC(C(=O)N2Cc3c(C)c(-c4ccc(C)cc4)c([C@H](OC(C)(C)C)C(=O)O)c(C)c3C2)CC1 (stereo partly drawn) [Example 116, (S)-2-(tert-butoxy)-2-(2-(4-methoxycyclohexanecarbonyl)-4,7-dimethyl-6-(p-tolyl)isoindolin-5-yl)acetic acid] | 31
7 | Cc1ccc(-c2c(C)c3c(c(C)c2[C@H](OC(C)(C)C)C(=O)O)CN(C(=O)CC2CCCCC2)C3)cc1 [Example 117, (S)-2-(tert-butoxy)-2-(2-(2-cyclohexylacetyl)-4,7-dimethyl-6-(p-tolyl)isoindolin-5-yl)acetic acid] | 17
8 | Cc1ccc(-c2c(C)c3c(c(C)c2[C@H](OC(C)(C)C)C(=O)O)CN(C(=O)C2CC4(CCC4)C2)C3)cc1 [Example 118, (S)-2-(tert-butoxy)-2-(4,7-dimethyl-2-(spiro[3.3]heptane-2-carbonyl)-6-(p-tolyl)isoindolin-5-yl)acetic acid] | 14
9 | Cc1ccc(-c2c(C)c3c(c(C)c2[C@H](OC(C)(C)C)C(=O)O)CN(C(=O)c2cc(F)cc(F)c2)C3)cc1 [Example 119, (S)-2-(tert-butoxy)-2-(2-(3,5-difluorobenzoyl)-4,7-dimethyl-6-(p-tolyl)isoindolin-5-yl)acetic acid] | 3
10 | Cc1ccc(-c2c(C)c3c(c(C)c2[C@H](OC(C)(C)C)C(=O)O)CN(C(=O)c2cccc(F)c2F)C3)cc1 [Example 120, (S)-2-(tert-butoxy)-2-(2-(2,3-difluorobenzoyl)-4,7-dimethyl-6-(p-tolyl)isoindolin-5-yl)acetic acid] | 3
11 | Cc1ccc(-c2c(C)c3c(c(C)c2[C@H](OC(C)(C)C)C(=O)O)CN(C(=O)c2cc(F)ccc2C)C3)cc1 [Example 121, (S)-2-(tert-butoxy)-2-(2-(5-fluoro-2-methylbenzoyl)-4,7-dimethyl-6-(p-tolyl)isoindolin-5-yl)acetic acid] | 4
12 | COc1cc(F)cc(C(=O)N2Cc3c(C)c(-c4ccc(C)cc4)c([C@H](OC(C)(C)C)C(=O)O)c(C)c3C2)c1 [Example 122, (S)-2-(tert-butoxy)-2-(2-(3-fluoro-5-methoxybenzoyl)-4,7-dimethyl-6-(p-tolyl)isoindolin-5-yl)acetic acid] | 3
13 | Cc1ccc(-c2c(C)c3c(c(C)c2[C@H](OC(C)(C)C)C(=O)O)CN(C(=O)c2cc(C)cc(F)c2)C3)cc1 [Example 123, (S)-2-(tert-butoxy)-2-(2-(3-fluoro-5-methylbenzoyl)-4,7-dimethyl-6-(p-tolyl)isoindolin-5-yl)acetic acid] | 4
14 | Cc1ccc(-c2c(C)c3c(c(C)c2[C@H](OC(C)(C)C)C(=O)O)CNC3)cc1 [Example 124, (S)-2-(tert-butoxy)-2-(4,7-dimethyl-6-(p-tolyl)isoindolin-5-yl)acetic acid] | 1090
15 | Cc1ccc(-c2c(C)c3c(c(C)c2[C@H](OC(C)(C)C)C(=O)O)CN(Cc2cccc4c2OCCO4)C3)cc1 [Example 125, (S)-2-(tert-butoxy)-2-(2-((2,3-dihydrobenzo[b][1,4]dioxin-5-yl)methyl)-4,7-dimethyl-6-(p-tolyl)isoindolin-5-yl)acetic acid] | 15
16 | Cc1ccc(-c2c(C)c3c(c(C)c2[C@H](OC(C)(C)C)C(=O)O)CN(C(=O)OC(C)(C)C)C3)cc1 [Example 126, (S)-2-(tert-butoxy)-2-(2-(tert-butoxycarbonyl)-4,7-dimethyl-6-(p-tolyl)isoindolin-5-yl)acetic acid] | 13
17 | Cc1ccc(-c2c(C)c3c(c(C)c2[C@H](OC(C)(C)C)C(=O)O)CN(CC(=O)N2CCCCC2)C3)cc1 [Example 127, (S)-2-(tert-butoxy)-2-(4,7-dimethyl-2-(2-oxo-2-(piperidin-1-yl)ethyl)-6-(p-tolyl)isoindolin-5-yl)acetic acid] | 318

Row | Compound | IC50 [nM]
18 | Cc1ccc(-c2c(C)c3c(c(C)c2[C@H](OC(C)(C)C)C(=O)O)CN(C(=N)N2CCCCC2)C3)cc1 [Example 128, (S)-2-(tert-butoxy)-2-(2-(imino(piperidin-1-yl)methyl)-4,7-dimethyl-6-(p-tolyl)isoindolin-5-yl)acetic acid] | 8540
19 | Cc1ccc(-c2c(C)c3c(c(C)c2[C@H](OC(C)(C)C)C(=O)O)CN(C(=O)C(=O)N2CCCCC2)C3)cc1 [Example 129] | 14
20 | Cc1ccc(-c2c(C)c3c(c(C)c2[C@H](OC(C)(C)C)C(=O)O)CN(C(=O)C(=O)N2CCOC[C@H]2C)C3)cc1 [Example 130, (S)-2-(tert-butoxy)-2-(4,7-dimethyl-2-(2-((R)-3-methylmorpholino)-2-oxoacetyl)-6-(p-tolyl)isoindolin-5-yl)acetic acid] | 41
21 | Cc1ccc(-c2c(C)c3c(c(C)c2[C@H](OC(C)(C)C)C(=O)O)CN(C(=S)N2CCCCC2)C3)cc1 [Example 131, (S)-2-(tert-butoxy)-2-(4,7-dimethyl-2-(piperidine-1-carbonothioyl)-6-(p-tolyl)isoindolin-5-yl)acetic acid] | 19
22 | Cc1c2c(c(C)c([C@H](OC(C)(C)C)C(=O)O)c1-c1ccc(Cl)cc1)CN(C(=O)N1CCCCC1)C2 [Example 132, (S)-2-(tert-butoxy)-2-(6-(4-chlorophenyl)-4,7-dimethyl-2-(piperidine-1-carbonyl)isoindolin-5-yl)acetic acid] | 21
23 | Cc1c2c(c(C)c([C@H](OC(C)(C)C)C(=O)O)c1-c1ccc(Cl)cc1)CN(C(=O)C1CCCCC1)C2 [Example 134, (S)-2-(tert-butoxy)-2-(6-(4-chlorophenyl)-2-(cyclohexanecarbonyl)-4,7-dimethylisoindolin-5-yl)acetic acid] | 6
24 | Cc1c2c(c(C)c([C@H](OC(C)(C)C)C(=O)O)c1-c1ccc(Cl)cc1)CN(C(=O)CC(C)(C)C)C2 [Example 135, (S)-2-(tert-butoxy)-2-(6-(4-chlorophenyl)-2-(3,3-dimethylbutanol)-4,7-dimethylisoindolin-5-yl)acetic acid] | 23
25 | Cc1ccc(F)cc1C(=O)N1Cc2c(C)c(-c3cc(F)c4c(c3C)CCCO4)c([C@H](OC(C)(C)C)C(=O)O)c(C)c2C1 [Example 136, (S)-2-(tert-butoxy)-2-((R)-2-(5-fluoro-2-methylbenzoyl)-6-(8-fluoro-5-methylchroman-6-yl)-4,7-dimethylisoindolin-5-yl)acetic acid] | 2
26 | COc1ccccc1C(=O)N1Cc2c(C)c(-c3ccc(C)cc3)c([C@H](OC(C)(C)C)C(=O)O)c(C)c2C1 [Example 163, (S)-2-(tert-butoxy)-2-(2-(2-methoxybenzoyl)-4,7-dimethyl-6-(p-tolyl)isoindolin-5-yl)acetic acid] | 4
27 | Cc1ccc(-c2c(C)c3c(c(C)c2[C@H](OC(C)(C)C)C(=O)O)CN(C(=O)c2cccc4c2OCC4)C3)cc1 [Example 164, (S)-2-(tert-butoxy)-2-(2-(2,3-dihydrobenzofuran-7-carbonyl)-4,7-dimethyl-6-(p-tolyl)isoindolin-5-yl)acetic acid] | 4
28 | Cc1ccc(-c2c(C)c3c(c(C)c2[C@H](OC(C)(C)C)C(=O)O)CN(C(=O)c2cccc4c2ccn4C)C3)cc1 [Example 165, (S)-2-(tert-butoxy)-2-(4,7-dimethyl-2-(1-methyl-1H-indole-4-carbonyl)-6-(p-tolyl)isoindolin-5-yl)acetic acid] | 108
29 | Cc1ccc(-c2c(C)c3c(c(C)c2[C@H](OC(C)(C)C)C(=O)O)CN(C(=O)c2cccc4sccc24)C3)cc1 [Example 166, (S)-2-(2-(benzo[b]thiophene-4-carbonyl)-4,7-dimethyl-6-(p-tolyl)isoindolin-5-yl)-2-(tert-butoxy)acetic acid] | 27
30 | Cc1ccc(-c2c(C)c3c(c(C)c2[C@H](OC(C)(C)C)C(=O)O)CN(C(=O)c2cccc4ccoc24)C3)cc1 [Example 167, (S)-2-(2-(benzofuran-7-carbonyl)-4,7-dimethyl-6-(p-tolyl)isoindolin-5-yl)-2-(tert-butoxy)acetic acid] | 4
31 | Cc1ccc(-c2c(C)c3c(c(C)c2[C@H](OC(C)(C)C)C(=O)O)CN(C(=O)c2ccccc2C)C3)cc1 [Example 219, (S)-2-(tert-butoxy)-2-(4,7-dimethyl-2-(2-methylbenzoyl)-6-(p-tolyl)isoindolin-5-yl)acetic acid] | 4
32 | Cc1ccc(-c2c(C)c3c(c(C)c2[C@H](OC(C)(C)C)C(=O)O)CN(C(=O)c2cccc(Cl)c2)C3)cc1 [Example 220, (S)-2-(tert-butoxy)-2-(2-(3-chlorobenzoyl)-4,7-dimethyl-6-(p-tolyl)isoindolin-5-yl)acetic acid] | 4
33 | Cc1ccc(-c2c(C)c3c(c(C)c2[C@H](OC(C)(C)C)C(=O)O)CN(C(=O)c2cccc(F)c2C)C3)cc1 [Example 221, (S)-2-(tert-butoxy)-2-(2-(3-fluoro-2-methylbenzoyl)-4,7-dimethyl-6-(p-tolyl)isoindolin-5-yl)acetic acid] | 4
